Tested on: KB tumors
Assay: In vivo antitumor experiments, s.c. KB tumors in nu/nu mice
Details: i.v., EC145 1 μmol/kg/injection TIW 2 weeks
Method: Four to six week-old female nu/nu mice (Charles River, Wilmington, Mass.) or six to seven week-old female Balb/c mice (Harlan Sprague Dawley, Inc., Indianapolis, Ind.) were maintained on a standard 12 h light-dark cycle and fed ad libitum with folate-deficient chow (Harlan diet #TD00434, Harlan Teklad, Madison, Wis.) for the duration of the experiment. FR-positive human nasopharyngeal KB cells and human ovarian IGROV cells were grown continuously as a monolayer, using folate-free RPMI medium (FFRPMI) containing 10% heat-inactivated fetal calf serum (HIFCS) at 37° C. in a 5% CO2/95% air-humidified atmosphere with no antibiotics. Syngeneic FR-positive Madison 109 (M109) lung carcinoma cells were generated from M109 tumors and cultured for a few days in FFRPMI containing 10% HIFCS for a few days before implantation in mice. KB cells (1×10^6 per nu/nu mouse), M109 cells (1×10^6 per Balb/c mouse), IGROV cells (4×10^6 per nu/nu mouse) in 100 μL were injected in the subcutis of the dorsal medial area. Mice were divided into groups of five, and test articles were freshly prepared and injected through the lateral tail vein under sterile conditions in a volume of 200 μL of phosphate-buffered saline (PBS). […] The mice in the control groups received no treatment. Growth of each s.c. tumor was followed by measuring the tumor three times per week during treatment and twice per week thereafter until a volume of 1500 mm^3 was reached. Tumors were measured in two perpendicular directions using Vernier calipers, and their volumes were calculated as 0.5×L×W^2, where L=measurement of longest axis in mm and W=measurement of axis perpendicular to L in mm. As a general measure of toxicity, changes in body weights were determined on the same schedule as tumor volume measurements. Survival of animals was monitored daily. Animals that were moribund (or unable to reach food or water) were euthanized by CO2 asphyxiation. All in vivo studies were performed in accordance with the American Accreditation Association of Laboratory Animal Care guidelines.
For individual tumors, a partial response (PR) was defined as volume regression>50% but with measurable tumor (>2 mm^3) remaining at all times. Complete response (CR) was defined as a disappearance of measurable tumor mass (<2 mm^3) at some point until the end of the study. Cures were defined as CR's without tumor re-growth within the study time frame.
See FIG. 1 for tumor response and FIG. 2 for weight change during the treatment period.
See FIG. 3 for tumor response and FIG. 4 for weight change during the treatment period.
See FIG. 5 for tumor response and FIG. 6 for weight change during the treatment period.

[1] = KB tumors 111-173 mm^3, five animals per group, Paclitaxel 20 mg/kg TIW in Cremophor/ethanol 1 week (FIG. 5)
[2] = KB tumors 144-212 mm^3, five animals per group, Docetaxel 10 mg/kg TIW 1 week (FIG. 1)

| Structure (SMILES) | Cures [1] | complete responses [1] | Cures [2] | complete responses [2] | partial responses [2] |
| --- | --- | --- | --- | --- | --- |
| CC(=O)O[C@H]1C(=O)[C@@]2(C)[C@H]([C@H](OC(=O)c3ccccc3)[C@]3(O)C[C@H](OC(=O)[C@H](O)[C@@H](NC(=O)c4ccccc4)c4ccccc4)C(C)=C1C3(C)C)[C@]1(OC(C)=O)CO[C@@H]1C[C@@H]2O [Paclitaxel, paclitaxel] | 3 | 2 | – | – | – |
| CC(=O)O[C@@]12CO[C@@H]1C[C@H](O)[C@@]1(C)C(=O)[C@H](O)C3=C(C)[C@@H](OC(=O)[C@H](O)[C@@H](NC(=O)OC(C)(C)C)c4ccccc4)C[C@@](O)([C@@H](OC(=O)c4ccccc4)[C@H]21)C3(C)C [Docetaxel, docetaxel] | – | – | no | no | no |

From patent US8987281B2, “Methods of treating cancer” (Endocyte, Inc., priority 2010, dated 2015)
